The source of these data is ChEMBL document CHEMBL5528017, “Design and synthesis of dual BRD4/Src inhibitors for treatment of triple-negative breast cancer” (Eur J Med Chem, 2024).

Activity calls are given as the source filed them. The rule behind the calls is not given here.

Data set [1] has as its system MCF7. In words: Antiproliferative activity against human MCF7 cells assessed as inhibition of cell viability incubated for 3 to 4 days by CCK8 assay. It counts as functional, cell-based. The conditions noted are these: time 3-4 day. For orientation: Formazan colour is commonly taken as a measure of viable cells.
Data set [2] concerns A549. In words: Antiproliferative activity against human A549 cells assessed as inhibition of cell viability incubated for 3 to 4 days by CCK8 assay. The format is functional, cell-based. The conditions noted are these: time 3-4 day.
The subject of data set [3] is CWR22R. Put plainly: Antiproliferative activity against human 22Rv1 cells assessed as inhibition of cell viability incubated for 3 to 4 days by CCK8 assay. It counts as functional, cell-based. The conditions noted are these: time 3-4 day.
The subject of data set [4] is MDA-MB-231. In words: Induction of cell cycle arrest in human MDA-MB-231 cells assessed as proportion of cells at G1 phase at 0.1 uM incubated for 24 hrs by propidium iodide staining based flow cytometry (reference value: 59.5%). It counts as functional.
Data set [5] has as its system MDA-MB-231. In words: Induction of cell cycle arrest in human MDA-MB-231 cells assessed as proportion of cells at S phase at 0.1 uM incubated for 24 hrs by propidium iodide staining based flow cytometry (reference value: 28.2%). It counts as functional.
Data set [6] has as its system MDA-MB-231. Put plainly: Induction of cell cycle arrest in human MDA-MB-231 cells assessed as proportion of cells at G2 phase at 0.1 uM incubated for 24 hrs by propidium iodide staining based flow cytometry (reference value: 11.6%). It counts as functional. Background: A flow cytometer gives signals particle by particle.
Data set [7] has as its system MDA-MB-231. In words: Induction of cell cycle arrest in human MDA-MB-231 cells assessed as downregulation of cyclin B1 expression at 0.1 uM incubated for 24 hrs by western blot analysis. The format is functional, cell-based. On the technique in general: In western blotting, separated proteins are transferred to a membrane and probed.
Data set [8] concerns MDA-MB-231. Put plainly: Induction of cell cycle arrest in human MDA-MB-231 cells assessed as increase in p21 expression at 0.1 uM incubated for 24 hrs by western blot analysis. The format is functional, cell-based.
For data set [9], the system named is MDA-MB-231. Put plainly: Induction of cell cycle arrest in human MDA-MB-231 cells assessed as decrease in cyclin D1 expression at 0.1 uM incubated for 24 hrs by western blot analysis. It counts as functional, cell-based.
Data set [10] relates to MDA-MB-231. In words: Induction of apoptosis in human MDA-MB-231 cells assessed as proportion of viable cells at 0.5 uM incubated for 36 hrs by AnnexinV-FITC/PI staining based flow cytometry (reference value: 93.6%). The format is functional.
In data set [11] the test system is MDA-MB-231. In words: Induction of apoptosis in human MDA-MB-231 cells assessed as proportion of early apoptotic cells at 0.5 uM incubated for 36 hrs by AnnexinV-FITC/PI staining based flow cytometry (reference value: 5.05%). It counts as functional.
Data set [12] relates to MDA-MB-231. In words: Induction of apoptosis in human MDA-MB-231 cells assessed as proportion of late apoptotic cells at 0.5 uM incubated for 36 hrs by AnnexinV-FITC/PI staining based flow cytometry (reference value: […]%). It counts as functional.
Data set [13] relates to MDA-MB-231. In words: Induction of apoptosis in human MDA-MB-231 cells assessed as proportion of necrotic cells at 0.5 uM incubated for 36 hrs by AnnexinV-FITC/PI staining based flow cytometry (reference value: 0%). The format is functional.
Data set [14] has as its system MDA-MB-231. Put plainly: Inhibition of cell migration in human MDA-MB-231 cells at 0.05 uM incubated for 12 hrs by wound healing assay. The format is functional, cell-based.
The subject of data set [15] is MDA-MB-231. In words: Inhibition of cell invasion in human MDA-MB-231 cells assessed as decrease in number of invading cells at 0.1 uM incubated for 16 hrs by matrigel coated transwell assay. The format is functional, cell-based.
The test system of data set [16] is MDA-MB-231. Put plainly: Antitumor activity against human MDA-MB-231 cells xenografted in NOD-SCID mouse assessed as inhibition of tumor growth at 30 mg/kg, po administered 5 days per week for 27 days. The format is functional. The settings on record: MDA-MB-231, 648 h, time 27 day, read-out: TGI.
For data set [17], the system named is MDA-MB-231. Put plainly: cells. The conditions noted are these: Homo sapiens, MDA-MB-231, 72 h.
Description: Antiproliferative activity against human MDA-MB-231 cells assessed as inhibition of cell viability incubated for 72 hrs by CCK8 assay
Data set [18] deals with MDA-MB-231. In words: Induction of cell cycle arrest in human MDA-MB-231 cells assessed as […] in cyclin D1 expression at 0.1 uM incubated for 24 hrs by western blot analysis. It counts as functional, cell-based.
Data set [19] deals with MDA-MB-231. In words: Antitumor activity against human MDA-MB-231 cells xenografted in NOD-SCID mouse assessed as inhibition of tumor growth at 30 mg/kg, ip administered 5 days per week for 27 days. The format is functional. The settings on record: time 27 day.
In data set [20] the test system is MDA-MB-231. In words: Induction of cell cycle arrest in human MDA-MB-231 cells assessed as proportion of cells at G1 phase at 0.2 uM incubated for 24 hrs by propidium iodide staining based flow cytometry (reference value: 59.5%). It counts as functional.
The test system of data set [21] is MDA-MB-231. In words: Induction of cell cycle arrest in human MDA-MB-231 cells assessed as proportion of cells at S phase at 0.2 uM incubated for 24 hrs by propidium iodide staining based flow cytometry (reference value: 28.2%). The format is functional.
Data set [22] concerns MDA-MB-231. Put plainly: Induction of cell cycle arrest in human MDA-MB-231 cells assessed as proportion of cells at G2 phase at 0.2 uM incubated for 24 hrs by propidium iodide staining based flow cytometry (reference value: 11.6%). The format is functional.
Data set [23] relates to MDA-MB-231. In words: Induction of cell cycle arrest in human MDA-MB-231 cells assessed as downregulation of cyclin B1 expression at 0.1 to 0.2 uM incubated for 24 hrs by western blot analysis. It counts as functional, cell-based. The settings on record: dose 0.1-0.2 µM.
In data set [24] the test system is MDA-MB-231. Put plainly: Induction of cell cycle arrest in human MDA-MB-231 cells assessed as increase in p21 expression at 0.1 to 0.2 uM incubated for 24 hrs by western blot analysis. The format is functional, cell-based. The settings on record: dose 0.1-0.2 µM.
Data set [25] has as its system MDA-MB-231. Put plainly: Induction of cell cycle arrest in human MDA-MB-231 cells assessed as decrease in cyclin E1 expression at 0.1 to 0.2 uM incubated for 24 hrs by western blot analysis. The format is functional, cell-based. The conditions noted are these: dose 0.1-0.2 µM.
Data set [26] concerns MDA-MB-231. Put plainly: Induction of apoptosis in human MDA-MB-231 cells assessed as proportion of viable cells at 1 uM incubated for 36 hrs by AnnexinV-FITC/PI staining based flow cytometry (reference value: 93.6%). The format is functional.
For data set [27], the system named is MDA-MB-231. Put plainly: Induction of apoptosis in human MDA-MB-231 cells assessed as proportion of early apoptotic cells at 1 uM incubated for 36 hrs by AnnexinV-FITC/PI staining based flow cytometry (reference value: 5.05%). It counts as functional.
The test system of data set [28] is MDA-MB-231. Put plainly: Induction of apoptosis in human MDA-MB-231 cells assessed as proportion of late apoptotic cells at 1 uM incubated for 36 hrs by AnnexinV-FITC/PI staining based flow cytometry (reference value: […]%). The format is functional.
Data set [29] deals with MDA-MB-231. In words: Induction of apoptosis in human MDA-MB-231 cells assessed as proportion of necrotic cells at 1 uM incubated for 36 hrs by AnnexinV-FITC/PI staining based flow cytometry (reference value: 0%). It counts as functional.
Data set [30] relates to MDA-MB-231. In words: Induction of apoptosis in human MDA-MB-231 cells assessed as increase in cleaved PARP-1 expression at 0.5 uM incubated for 36 hrs by western blot analysis. The format is functional, cell-based.
The test system of data set [31] is MDA-MB-231. Put plainly: Induction of apoptosis in human MDA-MB-231 cells assessed as increase in cleaved caspase-9 expression at 0.5 uM incubated for 36 hrs by western blot analysis. The format is functional, cell-based.
Data set [32] relates to MDA-MB-231. In words: Induction of apoptosis in human MDA-MB-231 cells assessed as increase in cleaved caspase-3 expression at 0.5 uM incubated for 36 hrs by western blot analysis. It counts as functional, cell-based.
The subject of data set [33] is MDA-MB-231. Put plainly: Antitumor activity against human MDA-MB-231 cells xenografted in NOD-SCID mouse assessed as inhibition of tumor growth at 20 mg/kg, ip qd for 10 days. It counts as functional. The settings on record: MDA-MB-231, 240 h, time 10 day, read-out: TGI.
The subject of data set [34] is MDA-MB-231. Put plainly: Antitumor activity against human MDA-MB-231 cells xenografted in NOD-SCID mouse assessed as inhibition of tumor growth at 15 mg/kg, ip administered 5 days per week for 27 days. The conditions noted are these: MDA-MB-231, 648 h, time 27 day, read-out: TGI. The format is functional.
The subject of data set [35] is MDA-MB-231. In words: Antitumor activity against human MDA-MB-231 cells xenografted in NOD-SCID mouse assessed as reduction in tumor weight at 15 mg/kg, ip administered 5 days per week for 27 days. The format is functional. The settings on record: MDA-MB-231, 648 h, time 27 day.
The nature of data set [36]: Toxicity against NOD-SCID mouse xenografted with human MDA-MB-231 cells assessed as effect on body weight at 15 mg/kg, ip administered 5 days per week for 27 days. It counts as organism-based. The conditions noted are these: in vivo, 648 h, time 27 day.
A short description of data set [37]: Toxicity against NOD-SCID mouse xenografted with human MDA-MB-231 cells assessed as adverse effects at 15 mg/kg, ip administered 5 days per week for 27 days. The format is organism-based. The settings on record: in vivo, 648 h, time 27 day.
In data set [38] the target is Bromodomain-containing protein 4 (Homo sapiens, UniProt O60885). In words: Inhibition of His6-tagged recombinant BRD4 BD1 domain (44 to 168 residues) (unknown origin) expressed in Escherichia coli BL21(DE3) incubated for 0.5 hrs by FITC-labeled JQ1 based competitive fluorescence polarization assay.

As for `Cc1nc(Nc2ncc(C(=O)Nc3c(C)cccc3Cl)s2)cc(N2CCN(CCO)CC2)n1` [DASATINIB ANHYDROUS], the outcome in data set [1], in [2], in [3], in data set [7], in [8] and in [9] was Active. The Activity amounted to 74.5% in [4]; 15.8% in data set [5]; 7.75% in data set [6]; 80.9% in [10]; 14.6% in data set [11]; 4.45% in data set [12]. In data set [13], the Activity was 0.002%. Moreover, the inhibition entry in data set [14] and in data set [15] was “Active” in each case. For the same compound, in data set [16], the inhibition in vivo at 30 mg/kg is 44.7%. In [17], this compound showed a half-inhibitory concentration (IC50) of 157 nM.

Take `Cc1sc2c(c1C)C(c1ccc(Cl)cc1)=N[C@@H](CC(=O)OC(C)(C)C)c1nnc(C)n1-2`: the Activity in [4] stood at 73.3%; in data set [5] it was 17.5%; in data set [6], 8.53%; in [10], 83.8%; in [11] it was 13.3%; in data set [12], 2.9%. In addition, the Activity in data set [13] was 0%. Also, the result in [7], in data set [8] and in data set [18] was Active. Besides, the inhibition result in [14] was “Active”. Besides, the inhibition entry in [15] is “inactive”. Besides, the TGI in data set [19] is 63.6%. This compound showed a concentration for half-maximal inhibition (IC50) in data set [17] of 896 nM.

In the case of `Cc1nc(Nc2ncc(C(=O)Nc3c(C)cccc3Cl)s2)cc(N2CCN(CCOC(=O)C(C)NC(=O)C[C@@H]3N=C(c4ccc(Cl)cc4)c4c(sc(C)c4C)-n4c(C)nnc43)CC2)n1` (some centres not stated), the result in data set [1], in data set [2], in [3], in data set [23], in data set [24] and in data set [25] was Active. The outcome in data set [30], in data set [31] and in data set [32] was Active. For the same compound, the Activity in [4] is 80.4%; in [5], 12.8%; in [6], 6.47%; in data set [20], 84.4%; in [21], 10.1%; in [22], 4.96%. In addition, the Activity in [10] is on record as 71.1%; in [11], 22.9%; in data set [12] it was 6.01%; in data set [13], 0%; in data set [26], 76.3%; in data set [27], 16.5%. For the same compound, the Activity was 7.14% in data set [28], 0% in data set [29], “Non-Toxic” in data set [36] and “Non-Toxic” in data set [37]. The inhibition in vivo at 20 mg/kg in data set [33] is 75.4%. The inhibition in vivo at 15 mg/kg in data set [34] came to 70.7%; in [35] it was 66.1%. The IC50 in [17] came out at 34 nM.

Turning to `Cc1nc(Nc2ncc(C(=O)Nc3c(C)cccc3Cl)s2)cc(N2CCN(C(=O)[C@@H]3CCCCN3C(=O)C[C@@H]3N=C(c4ccc(Cl)cc4)c4c(sc(C)c4C)-n4c(C)nnc43)CC2)n1`, the IC50 in data set [38] was over 1000 nM; in data set [17], 5000 nM.

The IC50 is the concentration that gives 50% inhibition. As a reminder, the TGI is the reduction of tumour growth relative to the control group.
